The text below walks through data of patent publication US20170045513A1, “METHODS OF DIAGNOSING CELIAC DISEASE USING IP-10” (ImmusanT, Inc., priority 2014, published 2017).

For this experiment, the system named is gluten-reactive T cells. The experiment can be described thus: Overnight IFNγ ELISpot assay with fresh PBMC. The experiment is classed as cell-based, human. The conditions noted are these: for Percent of maximal response to individual gluten peptides, ELISp: after oral gluten challenge. Put shortly: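 Read-out is IFNγ spot-forming units per well, counted automatically after overnight culture of fresh PBMC (0.4 million/well) with single peptides (duplicate) or pools (triplicate). Donors: HLA-DQ2.5+ celiac patients on gluten-free diet, bled pre- and day 6 after 3-day oral gluten challenge.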

Non-standard residues stand in square brackets, D forms with d. pGlu = O=C1CC[C@@H](C(=O)O)N1

“(pE)PEQPIPEQPQPYPQQ-amide ([pGlu]PEQPIPEQPQPYPQQ-NH2; SMILES CC[C@H](C)[C@H](NC(=O)[C@@H]1CCCN1C(=O)[C@H](CCC(N)=O)NC(=O)[C@H](CCC(=O)O)NC(=O)[C@@H]1CCCN1C(=O)[C@@H]1CCC(=O)N1)C(=O)N1CCC[C@H]1C(=O)N[C@@H](CCC(=O)O)C(=O)N[C@@H](CCC(N)=O)C(=O)N1CCC[C@H]1C(=O)N[C@@H](CCC(N)=O)C(=O)N1CCC[C@H]1C(=O)N[C@@H](Cc1ccc(O)cc1)C(=O)N1CCC[C@H]1C(=O)N[C@@H](CCC(N)=O)C(=O)N[C@@H](CCC(N)=O)C(N)=O) [Peptide 3]”: the “IFNγ ELISpot response relative to Peptide 14 5 μM” value (Peptide 3 10 μg/mL (5.3 μM)) is listed as “only one-half”. Further, the “Percent of maximal response to individual gluten peptides, ELISp” value (shortened to “Percent of maximal response”) (Subject 3, Max. 18 SFU) is listed as 50 % of max; the “Percent of maximal response” value (Subject 4, Max. 36 SFU) is 83 % of max; the “Percent of maximal response” value (Subject 6, Max. 16 SFU) was 69 % of max; the “Percent of maximal response” value (Subject 8, Max. 17 SFU) was 53 % of max; the “Percent of maximal response” value (Subject 10, Max. 11 SFU) is listed as 9 % of max. Moreover, the “IFNγ ELISpot % max Mean” value (n = 5, blood after oral gluten challenge, individual peptides 5 μM (Peptide 2* of P14, Pepscan: 10 μg/mL (5.45 μM))) amounted to 53 % max.
